Laboratory results taken from US20200101056A1, “USE OF ROCK INHIBITORS FOR PROMOTING SINONASAL EPITHELIAL CELL REPAIR” (priority 2018, published 2020).

How the values were obtained:
Assay type in all cases: cell-based, human
[1] = system: pNECs monolayers from CRSwNP patients; test: Wound healing assay (epithelial repair rate) of injured pNECs monolayers from CRSwNP patients; conditions: 6 h
Protocol: diagnosis was performed according to the 2004 AAO-HNS guidelines^31, and patients underwent ESS following failure of medical treatment. Control patients underwent ESS for cerebral spinal fluid leak or non-secreting pituitary adenomas. Exclusion criteria for both groups comprised immune deficiencies, neoplasia, ciliary dyskinesia, cystic fibrosis, and systemic immunosuppression. Tissues obtained during surgery at the level of anterior ethmoidal bulla (control) or the polyp itself ([…]) were immediately collected for subsequent cell isolation and culture. After recovery, pNECs were isolated following a standardized procedure^32-35. […] After 18 h, Fetal Bovine Serum was added to the solution to neutralize the protease-DNase activity, and pNECs were gently scraped off the remaining tissue. […] Images were registered using AxioVisionTM 4.8 software (Carl Zeiss, Jena, Germany) and then analyzed with Image J software (NIH, Bethesda, Md., USA) to measure areas at t=0 h and t=6 h of wound healing and then to calculate the repair rates (expressed in μm^2/h).

[2] = system: pNECs from CRSwNP patients; test: Analysis of lamellipodial dynamics by kymograph, pNECs from CRSwNP patients; conditions: SA 0.5% + Y-27632 5 μM, 0-2 h and 2-4 h, CRSwNP pNECs (FIG. 6)
Protocol: Brightfield time-lapse series were made on pNECs from patients with CRSwNP and control subjects plated in 2-well silicone culture inserts (Ibidi #80209, Fitchburg, USA) using an inverted Axio ObserverZ1 microscope equipped with a CoolSNAP™ EZ CCD camera and a 10×/0.3 NA air objective lens, and then analyzed by AxioVision™ software.
Immediately prior to image acquisition, cells were treated with LB (control condition for SA) or LB+water (control condition for SA+Y-27632). Cells were then positioned into the incubation chamber (37° C., 5% CO2) and images were captured every minute for 2 h to observe cell protrusions and retractions. Then, cells were treated with either SA exoproducts (concentration of 0.5% (v/v)) or a mix of SA (concentration of 0.5% v/v) and Y-27632 (5 μM), with the recording pursued during the following 4 h.
A one pixel-wide line crossing the cell membrane perpendicularly to the lamellipodia was drawn, and this region was extracted from each image of the time-lapse series, as previously described by Choi et al.^38. […] Data derived from these segmented lines were generated using “read velocity tsp macro” of ImageJ and used to calculate the length and velocity of each protrusion. At least a total of 40-110 individual protrusion events per condition and at least 14 different cells were analyzed in 3 independent time-lapse series.

[3] = system: nasal epithelia from CRSwNP patients; test: Immunofluorescence of cytoskeleton and lamellipodial cell quantification at the wound edge, nasal epithelia from CRSwNP patients; conditions: 4 h
Protocol: pNECs were grown to confluency on coverslips (precision cover glasses thickness No. 1.5H, Marienfeld, Lauda-Konigshofen, Germany) coated with Purecol™. After injury, (3 mechanical wounds/coverslip), cell monolayers were washed and then treated with either: 1) LB (concentration of 0.5% (v/v)): negative control, 2) SA exoproducts (concentration of 0.5% (v/v) SA filtrate) and 3) SA exoproducts (concentration of 0.5% (v/v) SA filtrate) and Y-27632 (5 μM). After 4 h of repair, cell monolayers were fixed with 4% paraformaldehyde in PBS for 5 min, permeabilized with 0.1% Triton™ X-100 in PBS for 10 min. After blocking (in 1% BSA in PBS for at least 1h at 4° C.), fixed cells were incubated with the primary anti-β-tubulin antibody (1:1000 in PBS+BSA1%, Millipore, Etobicoke, Canada) for 1 h at room temperature, and then with Alexa Fluor®-488 conjugated goat anti-mouse antibody secondary antibody (1:2000 in PBS+BSA1%,1 h, room temperature Thermo Fischer Scientific, Waltham, USA). F-actin was stained with Phalloidin-Alexa Fluor® 594 (1 unit, Thermo Fischer Scientific) (in PBS+BSA1%, for 1 h at room temperature) and nuclei with DAPI (1:1000 in PBS+BSA1%, for 5 min). Coverslips were mounted with ProLong® Gold Antifade Reagent (Molecular Probes, Eugene, USA) on SuperFrost™ glass slides (Thermo Fisher Scientific). Images were acquired with an inverted confocal microscope (TCS SP5, Leica Microsystems, Wetzlar, Germany) using an oil-immersion objective 63×/1.4. On immunofluorescence images, cells at the wound edge were classified according to the categories “with” or “without” lamellipodia as well as “ambiguous morphology” (see FIG. 10)^39. Percentages of cells in each category were then calculated.

[4] = system: pNEC; test: Pilot study of Y-27632 dose on epithelial repair in pNEC
Source text: pNECs were injured mechanically (3 wounds/well, 3 wells/condition), using a well-established, highly reproducible technique^32,34,37. After wounding, the cultures were washed to remove detached cells, and then randomly treated in either of the following conditions (performed in triplicate): 1) negative control: 0.5% (v/v) of LB, 2) exposure to SA exoproducts, (at both concentrations of 0.25% and 0.5% (v/v) SA filtrate), and 3) exposure to SA exoproducts (both concentrations of 0.25% and 0.5% (v/v) SA filtrate) and the ROCK inhibitor Y-27632 dihydrochloride (5 μM, Sigma-Aldrich®).
A mark on wells allowed us to capture images of the wounds at exactly the same place at t=0 h and t=6 h using an inverted microscope with a 4× objective (Nikon Eclipse™ TE 2000). Images were registered using AxioVision™ 4.8 software (Carl Zeiss, Jena, Germany) and then analyzed with Image J software (NIH, Bethesda, Md., USA) to measure areas at t=0 h and t=6 h of wound healing and then to calculate the repair rates (expressed in μm^2/h).
The effect of a potent Rho kinase (ROCK) inhibitor, Y-27632, on epithelial repair in pNECs exposed to SA exoproducts was assessed. It was first determined, in a pilot study, that 5 μM was the optimal dose for Y-27632 in pNEC.

[5] = CRSwNP, SA 0.5% + vehicle (SA) or SA 0.5% + Y-27632 5 μM (SA+Y) (FIG. 7B)

## C[C@@H](N)[C@H]1CC[C@H](C(=O)Nc2ccncc2)CC1 [Y-27632]
[1]; Y-27632 5 μM co-cultured with SA 0.25%
  increase of repair rates compared to corresponding SA condition in the absence of Y-27632: 1.86 fold
[1]; Y-27632 5 μM with SA 0.5%
  increase of repair rates compared to corresponding SA condition in the absence of Y-27632: 2.22 fold
[2]
  length and velocity of protrusions after SA+Y vs. LB: non-significant
[3]; [5]
  cells with lamellipodia: 65%
  cells without lamellipodia: 8%
[3]; SA 0.5% + Y-27632 5 μM, CRSwNP (FIG. 7A)
  lamellipodial extensions at the leading edge (cytoskeleton organization): partially restored lamellipodial extensions
[4]; 5 μM, in LB condition
  increase in epithelial repair rate: 23%
[4]; concentrations above 5 μM
  effect of increasing concentrations on pNECs: altered migration and induced pNECs apoptosis
[4]; pilot study
  optimal dose in pNEC: 5 μM
